The pEC50 is the negative decadic logarithm of the EC50, by convention in mol/L.

pEC50: −log10 of the molar value. Entries after “also recorded” stand apart in the source; their conditions may differ.

For one assay, the target named is T1, human Glucagon-R (Homo sapiens, UniProt P47871).
T1 construct: expressed in transfected cells
Kind of assay: Glucagon receptor efficacy assay (cAMP, HEK293 cells). Type of assay: cell-based. The note with it: read-out: GLUR EC50. As to the method: The 5′-end primers additionally encoded a near Kozak consensus sequence to ensure efficient translation.
48 hr after transfection cells were seeded for limited dilution cloning and selected with 1 mg/ml G418 in the culture medium.
On the day of analysis, growth medium was removed and the cells washed once with 200 μl Tyrode buffer. Cells were incubated in 100 μl Tyrode buffer containing increasing concentrations of test peptides, 100 μM IBMX, and 6 mM glucose for 15 min at 37° C. The reaction was stopped by addition of 25 μl 0.5 M HCl and incubated on ice for 60 min. The cAMP content was estimated using the FlashPlate® cAMP kit from Perkin-Elmer.

In assay [1] the test system is primary rat adipocyte cultures. It counts as cell-based. The method, then: Adipocytes were isolated from epididymal fat dissected from normal young adult Sprague-Dawley rats. The fat lumps were minced, incubated and shaken (220 rpm) with collagenase (1 mg/ml) in Krebs-Ringer buffer containing 4% BSA (KRB-BSA) for 60 minutes at 37° C. The suspension was filtered through a nylon filter (160 μm pore size) and the filtrate centrifuged at 200×g for 3 min. The subjacent medium beneath the upper floating layer of adipocytes was removed with a Pasteur-pipette. The adipocytes were washed 3 times in KRB-BSA buffer by re-suspension and centrifugation. The adipocytes were re-suspended in KRB-BSA, mixed, incubated in and shaken with test compounds in 96-deep well plates (50,000 cells/well) in a total volume of 1 ml at 37° C. for 60 min. The plates were placed on ice for at least 10 min after incubation followed by centrifugation at 200×g for 3 min. 300 μl of the buffer beneath the adipocyte layer were collected in a 96-deep well plate. This process was repeated two more times and the 3 extracts collected from each culture pooled together. The glycerol formed by the lipolysis in the adipocyte cultures was measured by adding free glycerol reagent (200 μl) to aliquots (25 μl) of adipocyte extract, incubate at room temperature for 15 min, and measure the absorbance at 540 nm.

Assay [2] in a line: Oral glucose tolerance test (OGTT) in db/db mice. Type of assay: in vivo. The note with it: 45 nmol/kg i.p. As to the method: The animals were kept fasted during the experiment to prevent confounding food intake. Fifteen minutes later an oral dose of glucose (1 g/kg in 5 ml/kg) was given and BG levels were measured at t=30 min, t=60 min, t=120 min and t=240 min.
Difference from baseline (t=0) was calculated for each time point and AUC0-240 min values were determined. Statistical analyses of AUC values by one-way ANOVA and Dunnetts post-hoc analyses were performed with GraphPad Prism version 4. Differences were considered significant at the p<0.05 level.

Assay [3] is described as follows: 28 day treatment of diet induced obese (DIO) mice: body weight gain. It counts as in vivo. The method, then: Four weeks before drug treatments, C57Bl/6 male mice (7 weeks) (10-12 animals in each group) were put on high fat diet (HFD) and their day-night cycle reversed with lights On/Off at 2000/0800 hour. Experimental animals were conditioned to treatment by daily injections (s.c.) of 0.1 ml vehicle and acclimatized to handling by weighing them twice a week one week before start of drug administrations. The day before start of experiment, mice were stratified into groups with similar body weight (BW) and the next day groups of stratified mice were treated (b.i.d.; s.c.) with ZP2653 (SEQ ID NO: 4) (500 nmol/kg)), or vehicle (PBS, pH 7.4, 2.5 μl/g BW). A non-obese control group maintained on regular chow was treated with vehicle in the same treatment regime as the DIO groups. Body weights were recorded daily and used to administer the body weight-corrected doses of peptide throughout the study. Animals were fasted overnight before sacrifice. An eye blood sample (0.6 ml EDTA) was obtained the following morning immediately before cervical dislocation. Blood plasma samples were stored at −80° C. until analyzed for cholesterol, HDL and LDL using commercially available kits. Body weight gains throughout the treatment period were calculated for each animal by subtracting its weight at the initiation of treatment. […]

Assay [4] is described as follows: 28 day treatment of DIO mice: plasma cholesterol, HDL and LDL. It counts as in vivo. To be noted: 4 weeks b.i.d., compared to vehicle. The method, then:
Four weeks before drug treatments, C57Bl/6 male mice (7 weeks) (10-12 animals in each group) were put on high fat diet (HFD) and their day-night cycle reversed with lights On/Off at 2000/0800 hour. Experimental animals were conditioned to treatment by daily injections (s.c.) of 0.1 ml vehicle and acclimatized to handling by weighing them twice a week one week before start of drug administrations. […] A non-obese control group maintained on regular chow was treated with vehicle in the same treatment regime as the DIO groups. Body weights were recorded daily and used to administer the body weight-corrected doses of peptide throughout the study. Animals were fasted overnight before sacrifice. An eye blood sample (0.6 ml EDTA) was obtained the following morning immediately before cervical dislocation. Blood plasma samples were stored at −80° C. until analyzed for cholesterol, HDL and LDL using commercially available kits. Body weight gains throughout the treatment period were calculated for each animal by subtracting its weight at the initiation of treatment.
Statistical analyses of data on body weight gain and cholesterols among treatments by 2-way ANOVA with repeated measures and Bonferoni post-hoc analyses were performed with GraphPad Prism version 4. Differences were considered significant at the p<0.05 level.

T1 sequence (P47871 26-477): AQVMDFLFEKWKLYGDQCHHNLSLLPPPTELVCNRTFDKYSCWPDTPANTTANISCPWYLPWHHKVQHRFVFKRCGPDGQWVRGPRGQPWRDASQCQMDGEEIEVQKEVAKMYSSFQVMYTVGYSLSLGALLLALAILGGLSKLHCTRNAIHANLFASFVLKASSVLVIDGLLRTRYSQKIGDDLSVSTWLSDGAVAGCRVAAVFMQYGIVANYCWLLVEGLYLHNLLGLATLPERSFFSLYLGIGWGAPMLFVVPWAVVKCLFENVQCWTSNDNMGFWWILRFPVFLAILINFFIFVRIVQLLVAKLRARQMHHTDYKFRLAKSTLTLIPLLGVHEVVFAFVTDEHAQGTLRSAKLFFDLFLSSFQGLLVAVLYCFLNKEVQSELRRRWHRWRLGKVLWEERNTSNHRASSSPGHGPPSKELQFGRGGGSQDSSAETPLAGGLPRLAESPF

Turning to “H-HSQGTFTSDYSLYLDSRRAKDFIEWLERA-NH2 [Compound L006-0050]”, the pEC50 at human Glucagon-R was 10.00.
“H-HSQGTFTSDYSLYLDSRRAKDFIEWLESA-NH2 [ZP2653]” showed a pEC50 in assay [1] of 8.44. In assay [1] (primary adipocyte cultures), the “lipolysis potency relative to OXM” value amounted to 50 times and the “lipolysis potency relative to glucagon” value is reported as “equipotent to glucagon”. For the same substance, the “improvement of glucose tolerance (decrease in Area Under the curve (AUC))” value in assay [2] (AUC0-240 min) was 39.5%. Besides, the “effect on oral glucose tolerance” value in assay [2] (OGTT) was “significantly improved glucose tolerance”. The “effect on body weight gain” value in assay [3] (DIO mice on HFD, 500 nmol/kg b.i.d. s.c., 28 days, versus vehicle) is given as “decreased body weight gain to a level similar to that observed with chow feeding; also recorded: decreased body weight gain significantly”. In assay [3] (DIO mice, 4 weeks treatment), the “effect on fat deposition” value was “significantly decreased fat deposition”. Moreover, in assay [4], the “effect on HDL/LDL ratios” value is listed as “significant” and the “effect on concentrations of LDL cholesterol” value is recorded as “significant effect”.

For the origin of these results see patent US8642541B2 (priority 2008, dated 2014).
